The values that follow come from patent US8916702B2 (priority 2012, dated 2014).

A word on the EC50: it is the concentration giving half of the maximal effect.

The test has as its system HCV pseudoparticles (genotype 1a HCV E1 and E2 envelope, H77C isolate). As to the kind of experiment: microbe, parasite or virus in culture. It counts as cell-based. The conditions noted are these: Hepatitis C virus.
[1] abbreviates: Huh-7, 48 h, HCV pseudoparticles (genotype 1a, H77C) in Huh7 cells, average of duplicate, luciferase 2 days after infection.
Setting [2] is: Huh-7, read-out: Activity (EC50 class), HCV pseudoparticles (genotype 1a, H77C) in Huh7 cells, EC50 expressed as class A/B.
Setting [3] is: Huh-7, 48 h, read-out: Activity (EC50 class), HCV pseudoparticle infection of Huh7 cells, luciferase 2 days after infection, EC50 expressed as class A/B.
The mark [4] stands for this setting: Huh-7, 48 h, HCV pseudoparticle infection of Huh7 cells, luciferase 2 days after infection, average of duplicates.
Where [5] appears, read: Huh-7, 48 h, read-out: Activity (EC50 class), HCV pseudoparticles, Huh7 cells, luciferase 2 days after infection, average of duplicates.
The mark [6] stands for this setting: Huh-7, 48 h, HCV pseudoparticles, Huh7 cells, luciferase 2 days after infection, average of duplicates.

Read-outs that look alike come from different tables or passages of the source.

On to `NC(=O)NCc1ccc(NC(=O)C(=O)NC[C@H](NC(=O)c2ccc(Nc3nc(NC4(c5ccc(Cl)cc5)CC4)nc(OCC(F)(F)F)n3)cc2)C(=O)O)cc1` [Compound 3281], for which the EC50 under setting [1] turned out to be 1.29 nM and the EC50 under setting [2] lay within 0.01 to 10 nM. Consider `COc1ccc(CNC(=O)C(=O)NCC[C@H](NC(=O)c2ccc(Nc3nc(NC4(c5ccc(Cl)cc5)CC4)nc(OCC(F)(F)F)n3)cc2)C(=O)O)cc1OC` [Compound 1184], for which the EC50 under setting [3] fell in the range of 0.01 to 10 nM. Consider `COC(=O)[C@H](CCNC(=O)C(=O)Nc1ccc(-n2cnnn2)cc1)NC(=O)c1ccc(Nc2nc(NC3(c4ccc(Cl)cc4)CC3)nc(OCC(F)(F)F)n2)cc1` [Compound 3308], for which the EC50 under setting [2] is 0.01 to 10 nM. Still for that read-out and setting: under `Cc1ccc(-c2ccccc2NC(=O)C(=O)NCC(C)(C)CNC(=O)c2ccc(Nc3nc(NC4(c5ccc(Cl)cc5)CC4)nc(OCC(F)(F)F)n3)cc2)o1` [Compound 3240] stands 0.01 to 10 nM; under `NC(=O)C(=O)NCCNC(=O)c1ccc(Nc2nc(NC3(c4ccc(Cl)cc4)CC3)nc(OCC(F)(F)F)n2)cc1` [Compound 3380], 0.01 to 10 nM. Regarding `O=C(NCC[C@H](NC(=O)c1ccc(Nc2nc(NC3(c4ccc(Cl)cc4)CC3)nc(OCC(F)(F)F)n2)cc1)C(=O)O)C(=O)Nc1cc(F)c(F)cc1F` [Compound 1514], the EC50 was 0.04 nM under setting [4] and 0.01 to 10 nM under setting [3]. Take `O=C(NC[C@H](NC(=O)c1ccc(Nc2nc(NC3(c4ccc(Cl)cc4)CC3)nc(OCC(F)(F)F)n2)cc1)C(=O)Cl)C(=O)Nc1ccc(OCCN2CCCCC2)nc1` [Compound 3791]: the EC50 under setting [5] is 0.01 to 10 nM.

In the case of `O=C(NC[C@H](NC(=O)c1ccc(Nc2nc(NC3(c4ccc(Cl)cc4)CC3)nc(OCC(F)(F)F)n2)cc1)C(=O)O)C(=O)Nc1ccc(-c2ccno2)cc1` [Compound 3282], the EC50 under setting [2] lay within 0.01 to 10 nM.

As to `CCC1(CC)CC1CNC(=O)C(=O)NCC[C@H](NC(=O)c1ccc(Nc2nc(NC3(c4ccc(Cl)cc4)CC3)nc(OCC(F)(F)F)n2)cc1)C(=O)O` (stereo partly shown) [Compound 1209], under setting [3], the EC50 lay in the range of 0.01 to 10 nM. Take `CCOC(=O)/C=C/c1ccc(NC(=O)C(=O)NCC(C)(C)CNC(=O)c2ccc(Nc3nc(NC4(c5ccc(Cl)cc5)CC4)nc(OCC(F)(F)F)n3)cc2)cc1` [Compound 3144]: the EC50 under setting [2] was in the range of 0.01 to 10 nM. In the case of `COC(=O)[C@H](CCNC(=O)C(=O)Nc1cccc(O)c1)NC(=O)c1ccc(Nc2nc(NC3(c4ccc(Cl)cc4)CC3)nc(OCC(F)(F)F)n2)cc1` [Compound 1521], the EC50 under setting [3] lay in the range of 0.01 to 10 nM. In the case of `O=C(NCC[C@H](NC(=O)c1ccc(Nc2nc(NC3(c4ccc(Cl)cc4)CC3)nc(OCC(F)(F)F)n2)cc1)C(=O)O)C(=O)Nc1ccc(Oc2cccnc2)nc1` [Compound 3624], under setting [5], the EC50 was in the range of 0.01 to 10 nM. For the molecule `O=C(NCC1CCc2ccccc21)C(=O)NC[C@H](NC(=O)c1ccc(Nc2nc(NC3(c4ccc(Cl)cc4)CC3)nc(OCC(F)(F)F)n2)cc1)C(=O)O` (stereo partly shown) [Compound 1414], under setting [3], the EC50 lay in the range of 0.01 to 10 nM.

With `COC(=O)[C@H](CCNC(=O)C(=O)Nc1ccc(C)cc1)NC(=O)c1ccc(Nc2nc(NC3(c4ccc(Cl)cc4)CC3)nc(OCC(F)(F)F)n2)cc1` [Compound 3114], the 50% effective concentration (EC50) by setting is: under setting [1], 0.084 nM; under setting [2], 0.01 to 10 nM. Regarding `Cc1cc(NC(=O)C(=O)NCC(C)(C)CNC(=O)c2ccc(Nc3nc(NC4(c5ccc(Cl)cc5)CC4)nc(OCC(F)(F)F)n3)cc2)ccc1Cl` [Compound 3798], the EC50 under setting [5] lay in the range of 0.01 to 10 nM. Regarding `CC(C)(CNC(=O)C(=O)NCC1CC1)CNC(=O)c1ccc(Nc2nc(NC3(c4ccc(Cl)cc4)CC3)nc(OCC(F)(F)F)n2)cc1` [Compound 1032], the EC50 (GETYPE1A, Huh-7, 48 h, read-out: Activity (EC50 class), HCV pseudoparticle infection of Huh7 cells, luciferase 2 days after infection, EC50 expressed as class A/B) was 0.01 to 10 nM. Take `COC(=O)[C@H](CNC(=O)C(=O)NCC1CCCCC1)NC(=O)c1ccc(Nc2nc(NC3(c4ccc(Cl)cc4)CC3)nc(OCC(F)(F)F)n2)cc1` [Compound 1149]: the EC50 under setting [3] is 0.01 to 10 nM. Take `O=C(NCC[C@H](NC(=O)c1ccc(Nc2nc(NC3(c4ccc(Cl)cc4)CC3)nc(OCC(F)(F)F)n2)cc1)C(=O)O)C(=O)Nc1ccc(F)cc1F` [Compound 1502]: the EC50 under setting [3] was 0.01 to 10 nM. For `O=C(NCCCCNC(=O)c1ccc(Nc2nc(NC3(c4ccc(Cl)cc4)CC3)nc(OCC(F)(F)F)n2)cc1)C(=O)NC1CCCCC1` [Compound 3398], the EC50 under setting [2] is 0.01 to 10 nM. On to `COC(=O)[C@H](CCNC(=O)C(=O)NC[C@H]1C[C@H]1c1ccc(C)cc1)NC(=O)c1ccc(Nc2nc(NC3(c4ccc(Cl)cc4)CC3)nc(OCC(F)(F)F)n2)cc1` [Compound 1393], for which, under setting [3], the EC50 was 0.01 to 10 nM.

Regarding `COC(=O)[C@@H](CCNC(=O)C(=O)Nc1ccccc1-c1ccccc1)NC(=O)c1ccc(Nc2nc(NC3(c4ccc(Cl)cc4)CC3)nc(OCC(F)(F)F)n2)cc1` [Compound 1528], under setting [3], the concentration giving a half-maximal response (EC50) fell in the range of 0.01 to 10 nM. As to `COC(=O)[C@H](CCNC(=O)C(=O)Nc1ccc(-c2ccno2)cc1)NC(=O)c1ccc(Nc2nc(NC3(c4ccc(Cl)cc4)CC3)nc(OCC(F)(F)F)n2)cc1` [Compound 3316], the EC50 under setting [2] is 0.01 to 10 nM.

As to `CC(C)(CNC(=O)C(=O)Nc1nc2ccc(S(N)(=O)=O)cc2s1)CNC(=O)c1ccc(Nc2nc(NC3(c4ccc(Cl)cc4)CC3)nc(OCC(F)(F)F)n2)cc1` [Compound 3825], under setting [5], the EC50 was in the range of 0.01 to 10 nM. For `Cn1nnnc1-c1cccc(NC(=O)C(=O)NC[C@H](NC(=O)c2ccc(Nc3nc(NC4(c5ccc(Cl)cc5)CC4)nc(OCC(F)(F)F)n3)cc2)C(=O)Cl)c1` [Compound 3786], it took 0.55 nM to reach a half-maximal effect under setting [6] (EC50) and the EC50 under setting [5] was in the range of 0.01 to 10 nM. On to `CC(C)(CNC(=O)C(=O)Nc1ccc(C(F)(F)F)cc1)CNC(=O)c1ccc(Nc2nc(NC3(c4ccc(Cl)cc4)CC3)nc(OCC(F)(F)F)n2)cc1` [Compound 3011], for which the EC50 under setting [2] is 0.01 to 10 nM. Regarding `O=C(NCCc1ccccn1)C(=O)NC[C@H](NC(=O)c1ccc(Nc2nc(NC3(c4ccc(Cl)cc4)CC3)nc(OCC(F)(F)F)n2)cc1)C(=O)O` [Compound 1394], the EC50 under setting [3] lay within 0.01 to 10 nM.

On to `O=C(NCC[C@H](NC(=O)c1ccc(Nc2nc(NC3(c4ccc(Cl)cc4)CC3)nc(OCC(F)(F)F)n2)cc1)C(=O)O)C(=O)Nc1ccc(Oc2ccccc2)nc1` [Compound 3640], for which the EC50 runs as follows: under setting [6], 16.1 nM; under setting [5], 10 to 1000 nM. With `O=C(NCC[C@H](NC(=O)c1ccc(Nc2nc(NC3(c4ccc(Cl)cc4)CC3)nc(OCC(F)(F)F)n2)cc1)C(=O)O)C(=O)NCC1CC1` [Compound 1206], the EC50 under setting [3] lay within 0.01 to 10 nM. For the molecule `COC(=O)[C@H](CCNC(=O)C(=O)NCc1ccc(F)cc1F)NC(=O)c1ccc(Nc2nc(NC3(c4ccc(Cl)cc4)CC3)nc(OCC(F)(F)F)n2)cc1` [Compound 1161], the half-maximal effective concentration (EC50) under setting [3] lay within 0.01 to 10 nM. Turning to `COC(=O)[C@@H](CCNC(=O)C(=O)NCC1(CN2CCOCC2)CC1)NC(=O)c1ccc(Nc2nc(NC3(c4ccc(Cl)cc4)CC3)nc(OCC(F)(F)F)n2)cc1` [Compound 1382], the EC50 under setting [3] lay within 0.01 to 10 nM. On the same count and under the same terms, under `CC(CNC(=O)C(=O)NCC[C@H](NC(=O)c1ccc(Nc2nc(NC3(c4ccc(Cl)cc4)CC3)nc(OCC(F)(F)F)n2)cc1)C(=O)O)c1ccccc1` (stereo partly shown) [Compound 1327] stands 0.01 to 10 nM. `COC(=O)/C(CCNC(=O)C(=O)Nc1cccc(Cc2ccccc2)c1)=N\C(=O)c1ccc(Nc2nc(NC3(c4ccc(Cl)cc4)CC3)nc(OCC(F)(F)F)n2)cc1` [Compound 3592]: the EC50 under setting [2] was in the range of 10 to 1000 nM. Take `NC(=O)c1cccc(NC(=O)C(=O)NC[C@H](NC(=O)c2ccc(Nc3nc(NC4(c5ccc(Cl)cc5)CC4)nc(OCC(F)(F)F)n3)cc2)C(=O)Cl)c1` [Compound 3745]: the EC50 under setting [5] was in the range of 0.01 to 10 nM. Consider `COc1ccc(-c2ccccc2)c(NC(=O)C(=O)NCC(C)(C)CNC(=O)c2ccc(Nc3nc(NC4(c5ccc(Cl)cc5)CC4)nc(OCC(F)(F)F)n3)cc2)c1` [Compound 3014], for which the EC50 under setting [2] fell in the range of 0.01 to 10 nM. With `CC(C)(CNC(=O)C(=O)Nc1ccc2c(c1)Cc1ccccc1-2)CNC(=O)c1ccc(Nc2nc(NC3(c4ccc(Cl)cc4)CC3)nc(OCC(F)(F)F)n2)cc1` [Compound 1570], the EC50 by setting is: under setting [4], 0.05 nM; under setting [3], 0.01 to 10 nM. Regarding `COc1cccc(CNC(=O)C(=O)NCC[C@H](NC(=O)c2ccc(Nc3nc(NC4(c5ccc(Cl)cc5)CC4)nc(OCC(F)(F)F)n3)cc2)C(=O)O)c1` [Compound 1183], the EC50 under setting [3] lay within 0.01 to 10 nM. As to `Cc1nc(-c2cccc(NC(=O)C(=O)NCC[C@H](NC(=O)c3ccc(Nc4nc(NC5(c6ccc(Cl)cc6)CC5)nc(OCC(F)(F)F)n4)cc3)C(=O)O)c2)no1` [Compound 3654], the EC50 under setting [5] was in the range of 0.01 to 10 nM. Regarding `COC(=O)[C@H](CNC(=O)C(=O)N[C@@H]1C[C@@H]2CC[C@H]1C2)NC(=O)c1ccc(Nc2nc(NC3(c4ccc(Cl)cc4)CC3)nc(OCC(F)(F)F)n2)cc1` [Compound 1050], the EC50 under setting [3] lay within 0.01 to 10 nM. Turning to `COC(=O)[C@H](CNC(=O)C(=O)Nc1ccc(-c2ccno2)cc1)NC(=O)c1ccc(Nc2nc(NC3(c4ccc(Cl)cc4)CC3)nc(OCC(F)(F)F)n2)cc1` [Compound 3199], the EC50 under setting [2] lay in the range of 0.01 to 10 nM. Turning to `CC(C)(C)c1ccc(Oc2ccc(NC(=O)C(=O)NC[C@H](NC(=O)c3ccc(Nc4nc(NC5(c6ccc(Cl)cc6)CC5)nc(OCC(F)(F)F)n4)cc3)C(=O)O)cn2)cc1` [Compound 3754], the EC50 under setting [5] lay within 0.01 to 10 nM. `CC(C)(CNC(=O)C(=O)NCC1(CN2CCCC2)CC1)CNC(=O)c1ccc(Nc2nc(NC3(c4ccc(Cl)cc4)CC3)nc(OCC(F)(F)F)n2)cc1` [Compound 1036]: the EC50 under setting [3] lay within 0.01 to 10 nM. As to `Cc1ccc(-c2cccc(NC(=O)C(=O)NCC[C@H](NC(=O)c3ccc(Nc4nc(NC5(c6ccc(Cl)cc6)CC5)nc(OCC(F)(F)F)n4)cc3)C(=O)O)c2)cc1` [Compound 3644], the EC50 under setting [5] is 0.01 to 10 nM.

As to `O=C(NCCNC(=O)c1ccc(Nc2nc(NC3(c4ccc(Cl)cc4)CC3)nc(OCC(F)(F)F)n2)cc1)C(=O)NCc1ccc(F)cc1` [Compound 3370], the EC50 under setting [2] lay in the range of 0.01 to 10 nM.
